Measured values as given in patent US11840528B2 (Hoffmann-La Roche Inc., priority 2018, dated 2023).

Tests used:
[1] = target: T1, h-GABA-A α5β3γ2 (Homo sapiens, UniProt P18507+P31644); assay: Two-electrode voltage clamp electrophysiology in Xenopus laevis oocytes expressing GABAA receptors, modulation of GABA EC20 current; type: cell-based; design: host or cells: Xenopus laevis oocytes micro-injected with RNA transcripts of the subunits; conditions: Table 1; for Efficacy (GABA) %: % modulation of GABA EC20 = 100*(Fold increase-1); for Fold increase h-GABA-A α5β3γ2 oocyte: test compound at approx. 30 fold its Ki, GABA at EC20
Summary of the method: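 Human α5β3γ2 GABAA receptors were expressed in Xenopus oocytes by RNA injection, with γ2 RNA 5–10-fold higher, and recorded 3–5 days later by two-electrode voltage clamp at −80 mV at room temperature. The test compound, at about 30× its Ki, was co-applied during a second GABA EC20 pulse. Efficacy is the extremum of the point-by-point ratio to the first response, expressed as 100*(Fold increase−1).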

[2] = target: T1, h-GABA-A α5β3γ2; assay: [3H]flumazenil competition binding assay, membranes of HEK293 cells expressing GABAA receptors; conditions: displacement of [3H]-Flumazenil 0.5 nM, HEK293 cells expressing human receptors, mean of two determinations; Table 1
Summary of the method: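 Membranes from HEK293 cells transiently expressing human α5β3γ2 GABAA receptors, in Krebs-tris buffer pH 7.5, competed against [3H]flumazenil for 1 hour at 4° C to equilibrium. Bound radioactivity collected on GF/C filters and counted by liquid scintillation; Ki values are means of two determinations.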

Cc1onc(-c2ccc(Cl)nc2)c1Cn1ncc(N2CC(OCC(F)(F)F)C2)cc1=O [Example 254, 2-((3-(6-chloropyridin-3-yl)-5-methylisoxazol-4-yl)methyl)-5-(3-(2,2,2-trifluoroethoxy)azetidin-1-yl)pyridazin-3(2H)-one]
Efficacy (GABA) % [1]: 147%
Fold increase h-GABA-A α5β3γ2 oocyte [1]: 2.47
Ki [2]: 27.6 nM

Cc1onc(-c2ccc(Cl)nc2)c1Cn1ncc(N2CC(OC(F)F)C2)cc1=O [Example 255, 2-((3-(6-chloropyridin-3-yl)-5-methylisoxazol-4-yl)methyl)-5-(3-(difluoromethoxy)azetidin-1-yl)pyridazin-3(2H)-one]
Efficacy (GABA) % [1]: 99%
Fold increase h-GABA-A α5β3γ2 oocyte [1]: 1.99
Ki [2]: 14.6 nM

Cc1onc(-c2ccc(Cl)nc2)c1Cn1ncc(N2CCC3(CCCO3)CC2)cc1=O [Example 256, 2-((3-(6-chloropyridin-3-yl)-5-methylisoxazol-4-yl)methyl)-5-(1-oxa-8-azaspiro[4.5]decan-8-yl)pyridazin-3(2H)-one]
Efficacy (GABA) % [1]: 126%
Fold increase h-GABA-A α5β3γ2 oocyte [1]: 2.26
Ki [2]: 45.4 nM

Cc1onc(-c2ccc(Cl)nc2)c1Cn1ncc(N2CC3(CCOCC3)C2)cc1=O [Example 257, 2-((3-(6-chloropyridin-3-yl)-5-methylisoxazol-4-yl)methyl)-5-(7-oxa-2-azaspiro[3.5]nonan-2-yl)pyridazin-3(2H)-one]
Efficacy (GABA) % [1]: 108%
Fold increase h-GABA-A α5β3γ2 oocyte [1]: 2.08
Ki [2]: 36.6 nM

Cc1onc(-c2ccc(Cl)nc2)c1Cn1ncc(N2CCC3(CC2)COC3)cc1=O [Example 258, 2-((3-(6-chloropyridin-3-yl)-5-methylisoxazol-4-yl)methyl)-5-(2-oxa-7-azaspiro[3.5]nonan-7-yl)pyridazin-3(2H)-one]
Efficacy (GABA) % [1]: 126%
Fold increase h-GABA-A α5β3γ2 oocyte [1]: 2.26
Ki [2]: 34.3 nM

Cc1ccc(-c2noc(C3CC3)c2Cn2ncc(N3CC4(CCCCO4)C3)cc2=O)nn1 [Example 259, 2-[[5-cyclopropyl-3-(6-methylpyridazin-3-yl)isoxazol-4-yl]methyl]-5-(5-oxa-2-azaspiro[3.5]nonan-2-yl)pyridazin-3-one]
Efficacy (GABA) % [1]: 193%
Fold increase h-GABA-A α5β3γ2 oocyte [1]: 2.93
Ki [2]: 36.2 nM

Cc1onc(-c2ccc(C3CC3)nc2)c1Cn1ncc(N2CC3(C2)CC(F)(F)CO3)cc1=O [Example 260, 2-((3-(6-cyclopropylpyridin-3-yl)-5-methylisoxazol-4-yl)methyl)-5-(7,7-difluoro-5-oxa-2-azaspiro[3.4]octan-2-yl)pyridazin-3(2H)-one]
Efficacy (GABA) % [1]: 123%
Fold increase h-GABA-A α5β3γ2 oocyte [1]: 2.23
Ki [2]: 3.7 nM

Cc1ccc(-c2noc(C)c2Cn2ncc(N3CC[C@@H](OC(C)(C)C)C3)cc2=O)nn1 [Example 261, 5-[(3R)-3-tert-butoxypyrrolidin-1-yl]-2-[[5-methyl-3-(6-methylpyridazin-3-yl)isoxazol-4-yl]methyl]pyridazin-3-one]
Efficacy (GABA) % [1]: 77%
Fold increase h-GABA-A α5β3γ2 oocyte [1]: 1.77
Ki [2]: 3.6 nM

COC1(C)CCN(c2cnn(Cc3c(-c4ccc(Cl)nc4)noc3C)c(=O)c2)CC1 [Example 262, 2-((3-(6-chloropyridin-3-yl)-5-methylisoxazol-4-yl)methyl)-5-(4-methoxy-4-methylpiperidin-1-yl)pyridazin-3(2H)-one]
Efficacy (GABA) % [1]: 216%
Fold increase h-GABA-A α5β3γ2 oocyte [1]: 3.16
Ki [2]: 35.5 nM

Cc1onc(-c2ccc(Cl)nc2)c1Cn1ncc(N2CCN(c3ccnnc3)CC2)cc1=O [Example 263, 2-((3-(6-chloropyridin-3-yl)-5-methylisoxazol-4-yl)methyl)-5-(4-(pyridazin-4-yl)piperazin-1-yl)pyridazin-3(2H)-one]
Efficacy (GABA) % [1]: 205%
Fold increase h-GABA-A α5β3γ2 oocyte [1]: 3.05
Ki [2]: 4.2 nM

Cc1ccc(-c2noc(C)c2Cn2ncc(N3CC(OC(C)(C)C(F)(F)F)C3)cc2=O)nn1 [Example 264, 2-[[5-methyl-3-(6-methylpyridazin-3-yl)isoxazol-4-yl]methyl]-5-[3-(2,2,2-trifluoro-1,1-dimethyl-ethoxy)azetidin-1-yl]pyridazin-3-one]
Efficacy (GABA) % [1]: 93%
Fold increase h-GABA-A α5β3γ2 oocyte [1]: 1.93
Ki [2]: 3 nM

CCOC1CN(c2cnn(Cc3c(-c4ccc(C)nc4)noc3C)c(=O)c2Cl)C1 [Example 268, 4-chloro-5-(3-ethoxyazetidin-1-yl)-2-((5-methyl-3-(6-methylpyridin-3-yl)isoxazol-4-yl)methyl)pyridazin-3(2H)-one]
Efficacy (GABA) % [1]: 184%
Fold increase h-GABA-A α5β3γ2 oocyte [1]: 2.84
Ki [2]: 16.6 nM

Cc1onc(-c2ccc(Cl)nn2)c1Cn1ncc(N2CC3(C2)CC(F)(F)CO3)cc1=O [Example 269, 2-((3-(6-chloropyridazin-3-yl)-5-methylisoxazol-4-yl)methyl)-5-(7,7-difluoro-5-oxa-2-azaspiro[3.4]octan-2-yl)pyridazin-3(2H)-one]
Efficacy (GABA) % [1]: 70%
Fold increase h-GABA-A α5β3γ2 oocyte [1]: 1.7
Ki [2]: 1.4 nM

Cc1onc(-c2ccc(Cl)nc2)c1Cn1ncc(N2CCC3(CCO3)CC2)cc1=O [Example 270, 2-((3-(6-chloropyridin-3-yl)-5-methylisoxazol-4-yl)methyl)-5-(1-oxa-7-azaspiro[3.5]nonan-7-yl)pyridazin-3(2H)-one]
Efficacy (GABA) % [1]: 144%
Fold increase h-GABA-A α5β3γ2 oocyte [1]: 2.44
Ki [2]: 27.8 nM

Cc1onc(-c2ccc(Cl)nn2)c1Cn1ncc(N2CC(OC(C)(C)C)C2)cc1=O [Example 271, 5-(3-(tert-butoxy)azetidin-1-yl)-2-((3-(6-chloropyridazin-3-yl)-5-methylisoxazol-4-yl)methyl)pyridazin-3(2H)-one]
Efficacy (GABA) % [1]: 90%
Fold increase h-GABA-A α5β3γ2 oocyte [1]: 1.9
Ki [2]: 7.3 nM

CCOC1CN(c2cnn(Cc3c(-c4ccc(Cl)nc4)noc3C)c(=O)c2Cl)C1 [Example 272, 4-chloro-2-((3-(6-chloropyridin-3-yl)-5-methylisoxazol-4-yl)methyl)-5-(3-ethoxyazetidin-1-yl)pyridazin-3(2H)-one]
Efficacy (GABA) % [1]: 135%
Fold increase h-GABA-A α5β3γ2 oocyte [1]: 2.35
Ki [2]: 26.4 nM

Cc1onc(-c2ccc(Cl)nc2)c1Cn1ncc(N2CCN(c3cncnc3)CC2)cc1=O [Example 277, 2-((3-(6-chloropyridin-3-yl)-5-methylisoxazol-4-yl)methyl)-5-(4-(pyrimidin-5-yl)piperazin-1-yl)pyridazin-3(2H)-one]
Efficacy (GABA) % [1]: 131%
Fold increase h-GABA-A α5β3γ2 oocyte [1]: 2.31
Ki [2]: 3.4 nM

Cc1onc(-c2ccc(Cl)nc2)c1Cn1ncc(N2CCN(c3cccnc3)CC2)cc1=O [Example 278, 2-((3-(6-chloropyridin-3-yl)-5-methylisoxazol-4-yl)methyl)-5-(4-(pyridin-3-yl)piperazin-1-yl)pyridazin-3(2H)-one]
Efficacy (GABA) % [1]: 108%
Fold increase h-GABA-A α5β3γ2 oocyte [1]: 2.08
Ki [2]: 8 nM

CCOC1CN(c2cnn(Cc3c(-c4ccc(C)nn4)noc3CF)c(=O)c2)C1 [Example 279, 5-(3-ethoxyazetidin-1-yl)-2-((5-(fluoromethyl)-3-(6-methylpyridazin-3-yl)isoxazol-4-yl)methyl)pyridazin-3(2H)-one]
Efficacy (GABA) % [1]: 87%
Fold increase h-GABA-A α5β3γ2 oocyte [1]: 1.87
Ki [2]: 8.6 nM

Cc1nonc1N1CCN(c2cnn(Cc3c(-c4ccc(Cl)nc4)noc3C)c(=O)c2)CC1 [Example 280, 2-((3-(6-chloropyridin-3-yl)-5-methylisoxazol-4-yl)methyl)-5-(4-(4-methyl-1,2,5-oxadiazol-3-yl)piperazin-1-yl)pyridazin-3(2H)-one]
Efficacy (GABA) % [1]: 166%
Fold increase h-GABA-A α5β3γ2 oocyte [1]: 2.66
Ki [2]: 7.5 nM

COC1CN(c2cnn(Cc3c(-c4ccc(C(F)(F)F)nn4)noc3C)c(=O)c2)C1 [Example 281, 5-(3-methoxyazetidin-1-yl)-2-((5-methyl-3-(6-(trifluoromethyl)pyridazin-3-yl)isoxazol-4-yl)methyl)pyridazin-3(2H)-one]
Efficacy (GABA) % [1]: 105%
Fold increase h-GABA-A α5β3γ2 oocyte [1]: 2.05
Ki [2]: 9.4 nM

COc1ncc(-c2cnn(Cc3c(-c4ccc(Cl)nn4)noc3C)c(=O)c2)cc1Cl [Example 282, 5-(5-chloro-6-methoxypyridin-3-yl)-2-((3-(6-chloropyridazin-3-yl)-5-methylisoxazol-4-yl)methyl)pyridazin-3(2H)-one]
Efficacy (GABA) % [1]: 166%
Fold increase h-GABA-A α5β3γ2 oocyte [1]: 2.66
Ki [2]: 1.5 nM
